We go through ten compounds from US7312221B2, “Inhibitors of macrophage migration inhibitory factor and methods for identifying the same” (Avanir Pharmaceuticals, priority 2003, dated 2007).

Values joined by “and” are separate entries in the source; they are usually repeats but may differ in a detail not shown here. Equal values may be shown once. Read-outs that look alike come from different tables or passages of the source.

For orientation: melting point means the temperature, or range, at which the solid turns liquid.

Data set [1] has as its target T1, MIF (Homo sapiens, UniProt P14174).
T1 sequence (P14174 2-115 limits assumed): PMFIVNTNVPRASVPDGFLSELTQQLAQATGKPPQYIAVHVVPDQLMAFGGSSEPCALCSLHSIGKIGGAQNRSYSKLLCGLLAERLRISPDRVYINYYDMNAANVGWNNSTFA
Nature of the data set: Tautomerase assay (in vitro tautomerase inhibitory activity). It is filed as biochemical. The conditions noted are these: for MIF inhibitory activity, comparison of Compound 200 and Compound 203: in vitro activity, comparison of Table 2 (tautomerase; THP-1/MIF for 200 only); for in vitro tautomerase inhibitory activity: several different concentrations, FIG. 2 / FIG. 3. From the text: An alternative in vitro assay is designed to measure the ability of MIF to catalyze tautomerization of the D-isomer of dopachrome (see Rosengren et al., Mol. Med. 2:143-149, 1996; Winder et al., J. Cell Sci. 106:153-166, 1993; Aroca et al., Biochem. J. 277:393-397). Briefly, in this method, D-dopachrome is provided to MIF in the presence and absence of a candidate inhibitor and the ability to catalyze the tautomerization to 5,6-dihydroxyindole-2-carboxylic acid (DHICA) is monitored. However, use of methyl esters of D-dopachrome may be preferred in that a faster reaction rate is observed. Detection of the tautomerization can be performed by any one of a variety of standard methods.
In a similar assay, the ability of MIF to catalyze the tautomerization of phenylpyruvate may be tested (see Johnson et al., Biochem. 38(48):16024-16033, 1999). Briefly, in this method, typically ketonization of phenylpyruvate or (p-hydroxyphenyl)pyruvate is followed by spectroscopy. Further, product formation may be verified by treatment of these compounds with MIF and subsequent conversion to malate for ^1H NMR analysis.
The tautomerization reaction is carried out essentially as described by Rosengren et al., Mol. Med 2(1):143-149, 1996. D-dopachrome conversion to 5,6-dihydroxyindole-2-carboxylic acid is assessed. 1 ml sample cuvettes containing 0.42 mM substrate and 1.4 μg of MIF in a sample solution containing 0.1 mM EDTA and 10 mM sodium phosphate buffer, pH 6.0 are prepared and the rate of decrease in iminochrome absorbance is followed at 475 nm. L-dopachrome is employed as a control. In addition, the reaction products can be followed using an HPLC, utilizing a mobile phase including 20 mM KH2PO4 buffer (pH 4.0) and 15% methanol with a flow rate of 1.2 ml/min. Fluorimetric detection is followed at 295/345 nm.
Alternatively, the tautomerization reaction utilizing phenylpyruvate or (p-hydroxyphenyl)pyruvate is carried out essentially as described by Johnson et al., Biochem. 38:16024-16033, 1999. In this version, ketonization of phenylpyruvate is monitored at 288 nm (ε=17300 M^−1 cm^−1) and the ketonization of (p-hydroxyphenyl)pyruvate is monitored at 300 nm (ε=21600 M^−1 cm^−1). The assay mixture contains 50 mM Na2HPO4 buffer (1 mL, pH 6.5) and an aliquot of a solution of MIF sufficiently dilute (0.5-1.0 μL of a 2.3 mg/mL solution, final concentration of 93-186 nM) to yield an initial liner rate. The assay is initiated by the addition of a small quantity (1-3.3 μL) of either phenylpyruvate or (p-hydroxyphenyl)pyruvate from stock solutions made up in ethanol. The crystalline forms of phenylpyruvate and (p-hydroxyphenyl)pyruvate exist exclusively as the enol isomers (Larsen et al., Acta Chem. Scand. B 28:92-96, 1974).

The target of data set [2] is T2, MIF produced by THP-1 cells (Homo sapiens, UniProt P14174).
T2 construct: a test cell may express the MIF naturally (e.g., THP-1 cells); endogenous in cells; host or cells: THP-1 cells, LPS-stimulated; conditioned supernatant
T2 sequence (P14174 2-115 limits assumed): T1 sequence (P14174 2-115 limits assumed)
The data set can be described thus: THP-1 Cell Assay (THP-1/MIF inhibition, ELISA with anti-MIF monoclonal antibody). It is filed as cell-based. From the text:
The assays may generally be divided into three categories, those being, assays which monitor export; those which monitor effector or small molecule binding, and those that monitor MIF activity. However, it should be noted that combinations of these assays are within the scope of the present application. […] In an alternative, these two assays (i.e., binding and activity assays) may be combined into a singular assay which detects binding of a test compound (e.g., the ability to displace monoclonal antibodies or inhibit their binding) while also affecting MIF activity. Such assays include combining an ELISA type assay (or similar binding assay) with a MIF tautomerism assay or similar functional assay. As one of ordinary skill in the art may readily recognize, the exact assay employed is irrelevant, provided it is able to detect the ability of the compound of interest to bind MIF.
Varying concentrations of inhibitor analogs are added to LPS stimulated THP-1 cells and allowed to incubate overnight. The following day the amount of immunoreactive MIF detected is evaluated by ELISA.
The high throughput screening assay for MIF inhibitors is performed in a 96-well format using MIF produced by THP-1 cells and is performed as follows. MIF assays are performed by ELISA as indicated above. […] The amount of MIF is calculated by interpolation from an MIF standard curve.
(In general: In an ELISA, binding on a coated surface is turned into a signal by an enzyme label.)

[3] abbreviates: average of the determinations, read-out: Average IC 50 (Tautomerase Assay).
The mark [4] stands for this setting: single determinations, range in brackets, read-out: Tautomerase Assay (Inhibitory Concentration (IC) of 50 μm).

Compound `N#Cc1c(N2CCN(C(=O)c3cnccn3)CC2)c2ccccc2n(Cc2ccc(F)cc2)c1=O` [Compound 95, 1-(4-Fluoro-benzyl)-2-oxo-4-[4-(pyrazine-2-carbonyl)-piperazin-1-yl]-1,2-dihydro-quinoline-3-carbonitrile] had a melting point of 145 to 156 °C.

Compound `N#Cc1c(N2CCN(C(=O)c3ccc4ccccc4n3)CC2)c2ccccc2n(Cc2ccc(F)cc2)c1=O` [Compound 96, 1-(4-Fluoro-benzyl)-2-oxo-4-[4-(quinoline-2-carbonyl)-piperazin-1-yl]-1,2-dihydro-quinoline-3-carbonitrile] registered a melting point of 144 to 157 °C.

`Cc1cc(C(=O)N2CCN(c3c(C#N)c(=O)n(Cc4ccc(F)cc4)c4ccccc34)CC2)no1` [Compound 97, 1-(4-Fluoro-benzyl)-4-[4-(5-methyl-isoxazole-3-carbonyl)-piperazin-1-yl]-2-oxo-1,2-dihydro-quinoline-3-carbonitrile] displayed a melting point of 130 to 137 °C.

Compound `N#Cc1c(N2CCN(C(=O)C3CCCO3)CC2)c2ccccc2n(Cc2ccc(F)cc2)c1=O` (stereo not drawn) [Compound 98, 1-(4-Fluoro-benzyl)-2-oxo-4-[4-(tetrahydro-furan-2-carbonyl)-piperazin-1-yl]-1,2-dihydro-quinoline-3-carbonitrile] had a melting point of 123 to 135 °C.

`N#Cc1c(N2CCN(C(=O)c3ccc4c(c3)OCO4)CC2)c2ccccc2n(Cc2ccc(F)cc2)c1=O` [Compound 99, 4-[4-(Benzo[1,3]dioxole-5-carbonyl)-piperazin-1-yl]-1-(4-fluoro-benzyl)-2-oxo-1,2-dihydro-quinoline-3-carbonitrile] registered a melting point of 140 to 160 °C.

The compound `N#Cc1c(N2CCN(C(=O)c3ccc(C(F)(F)F)cc3)CC2)c2ccccc2n(Cc2ccc(F)cc2)c1=O` [Compound 100, 1-(4-Fluoro-benzyl)-2-oxo-4-[4-(4-trifluoromethyl-benzoyl)-piperazin-1-yl]-1,2-dihydro-quinoline-3-carbonitrile] returned a melting point of 181 to 185 °C.

Turning to `N#Cc1c(N2CCN(C(=O)c3c[nH]cn3)CC2)c2ccccc2n(Cc2ccc(F)cc2)c1=O` [Compound 101, 1-(4-Fluoro-benzyl)-4-[4-(1H-imidazole-4-carbonyl)-piperazin-1-yl]-2-oxo-1,2-dihydro-quinoline-3-carbonitrile], the melting point lay within 176 to 183 °C.

`N#Cc1c(N2CCN(C(=O)C3CCCS3)CC2)c2ccccc2n(Cc2ccc(F)cc2)c1=O` (stereo not drawn) [Compound 102, 1-(4-Fluoro-benzyl)-2-oxo-4-[4-(tetrahydro-thiophene-2-carbonyl)-piperazin-1-yl]-1,2-dihydro-quinoline-3-carbonitrile]: the melting point was 133 to 140 °C.

As to `Cn1c(=O)c(C#N)c(N2CCN(C(=O)c3cccs3)CC2)c2ccccc21` [Compound 200], the IC50 in data set [1] (setting [3]) is 0.32 µM; in data set [1] (setting [4]) it was 0.3 µM and 0.34 µM; in data set [2] (average of the determinations, read-out: Average IC 50 (THP-1/MIF Inhibition)) it was 0.15 µM. The “MIF inhibitory activity, comparison of Compound 200 and Compound 203” value in data set [1] was “satisfactory MIF inhibitory activity”. In data set [1], the “in vitro tautomerase inhibitory activity” value is given as “exhibits MIF inhibitory activity”. In addition, the “MIF inhibitory activity in the THP-1 Cell Assay” value in data set [2] (several different concentrations, FIG. 1) is given as “exhibits MIF inhibitory activity”.

For `N#Cc1c(N2CCN(C(=O)c3cccs3)CC2)c2ccccc2n(Cc2ccc(F)cc2)c1=O` [Compound 203], the IC50 in data set [1] (setting [3]) and in data set [1] (setting [4]) was 0.098 µM in each case. Further, the “MIF inhibitory activity, comparison of Compound 200 and Compound 203” value in data set [1] is given as “satisfactory MIF inhibitory activity”. Also, the “in vitro tautomerase inhibitory activity” value in data set [1] was “exhibits MIF inhibitory activity”.
